The text below walks through data of patent publication US20030125569A1, “Use of packing strip as a holographic data carrier” (priority 2002, published 2003).

A short description of series [1]: Estimated water content of crystalline forms after exposure to an atmosphere of defined relative humidity. In kind it is physicochemical. As to conditions: (3R,5S)-enantiomer; form obtained from Form E by exposure to defined relative humidity (A: 0 to 20%; B1/B2: 20 to 55%; C: 75%; D: 90%); monosodium salt. On the procedure:
The preparation of crystalline polymorphic Forms A, B1, B2, C and D is usually carried out by using Form E as the starting compound and by exposing Form E to an atmosphere having a defined relative humidity. Depending on the relative humidity used the different forms can be obtained.
Form E of Fluvastatin sodium ((3R,5S)-enantiomer) is first exposed to an atmosphere having a relative humidity of 90% for about 4 hours and subsequently to an atmosphere of 0 to 20% for about 90 minutes. This treatment leads to Form A of the (3R,5S)-enantiomer with an estimated water content of 0 to 5%. The above treatment can be carried out in an X-ray diffractometer in which the relative humidity of the atmosphere can be controlled during the measurement. X-ray powder diffraction studies show the product to be polymorphic Form A (see FIG. 1).
Form E of Fluvastatin sodium ((3R,5S)-enantiomer) is first exposed to an atmosphere having a relative humidity of 90% for about 4 hours and subsequently to an atmosphere of 20 to 55% for about 3 hours. This treatment leads to either Form B1 or Form B2 of the (3R,5S)-enantiomer with an estimated water content of 5 to 15%. The above treatment can be carried out in an X-ray diffractometer in which the relative humidity of the atmosphere can be controlled during the measurement. […]

The target in series [2] is T1, 3-hydroxy-3-methylglutaryl coenzyme A (HMG-CoA) (Homo sapiens, UniProt P04035).
T1 sequence (P04035 1-888): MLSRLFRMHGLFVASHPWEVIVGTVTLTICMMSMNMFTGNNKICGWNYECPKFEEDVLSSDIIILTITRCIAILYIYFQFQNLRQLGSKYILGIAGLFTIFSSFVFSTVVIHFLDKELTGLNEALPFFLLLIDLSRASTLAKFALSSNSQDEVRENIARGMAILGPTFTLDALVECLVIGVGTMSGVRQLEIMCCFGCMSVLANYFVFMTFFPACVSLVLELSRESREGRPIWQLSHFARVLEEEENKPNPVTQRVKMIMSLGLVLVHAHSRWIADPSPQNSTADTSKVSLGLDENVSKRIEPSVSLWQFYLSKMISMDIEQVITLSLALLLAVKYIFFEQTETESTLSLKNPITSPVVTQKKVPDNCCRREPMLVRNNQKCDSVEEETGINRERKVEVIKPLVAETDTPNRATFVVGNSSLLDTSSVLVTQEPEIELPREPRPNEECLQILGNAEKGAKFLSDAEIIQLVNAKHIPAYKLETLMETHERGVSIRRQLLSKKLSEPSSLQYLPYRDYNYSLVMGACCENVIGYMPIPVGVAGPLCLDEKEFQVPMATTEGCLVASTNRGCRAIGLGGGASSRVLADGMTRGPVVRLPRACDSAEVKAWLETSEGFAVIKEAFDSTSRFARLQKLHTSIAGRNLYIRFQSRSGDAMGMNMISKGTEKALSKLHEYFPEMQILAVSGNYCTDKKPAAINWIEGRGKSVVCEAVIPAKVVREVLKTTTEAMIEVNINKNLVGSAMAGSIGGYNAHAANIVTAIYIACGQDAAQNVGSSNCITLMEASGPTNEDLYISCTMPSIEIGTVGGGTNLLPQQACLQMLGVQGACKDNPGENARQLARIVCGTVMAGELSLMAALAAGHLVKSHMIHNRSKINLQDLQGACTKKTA
Particulars: O. Tempkin et al., Tetrahedron 1997, vol. 53, pages 10659-10670; cited from earlier work.

For the compound `CC(C)n1c(/C=C/[C@@H](O)C[C@@H](O)CC(=O)[O-])c(-c2ccc(F)cc2)c2ccccc21.[Na+]` (single isomer, unassigned) [Form D, (3R,5S)- or (3S,5R)-7-(3-(4-fluorophenyl)-1-(1-methylethyl)-1H-indol-2-yl)-3,5-dihydroxy-6-heptenoic acid monosodium salt], in series [1], the estimated water content is on record as 30%.

As to `CC(C)n1c(/C=C/[C@@H](O)C[C@@H](O)CC(=O)[O-])c(-c2ccc(F)cc2)c2ccccc21.[Na+]` (single isomer, unassigned; enantiomer 7) [(3R,5S)-enantiomer, 7-(3-(4-fluorophenyl)-1-(1-methylethyl)-1H-indol-2-yl)-3,5-dihydroxy-6-heptenoic acid monosodium salt], in series [2], the “biological potency among enantiomers” value is on record as “biologically most potent enantiomer”.
